Assay results as given in patent US12459951B2, “Compounds that interact with RAS superfamily proteins for treatment of cancers, inflammatory diseases, rasopathies, and fibrotic disease” (SHY Therapeutics, LLC, priority 2022, dated 2025).
Where a name gives a salt, the structure may show the parent alone.

Key:
TNF-alpha = TNF-alpha Quantification Assay (ELISA), LPS-stimulated RAW 264.7; assay type: cell-based; details: Mus musculus, RAW264.7; at 10 μM; read-out: TNFα: % inh.
KRas wild type = assay: Ras GTP Binding Domain Inhibition Assay (Ras Superfamily Assay); details: 20 μM compound; for KRas wild type + SOS: % inh.: with SOS; for KRas wild type: % inh.: without SOS
Text: (§1) Biological Example 3: Ras GTP Binding Domain Inhibition Assay
(§2) The assays described in Example 3 are collectively referred to as the “Ras Superfamily Assay” throughout this application.
(§3) A Ras Superfamily Activity Assay (as disclosed in International Application No. PCT/US2018/038613, filed Jun. 20, 2018, which is incorporated by reference in its entirety) was used as a specific assay to evaluate compounds against the following for the following Ras Superfamily proteins: KRas wild type, KRas Q61H mutant, KRas G12C mutant, KRas G12D mutant, Rac-1, and Rho-A.
(§4) • 25 mM Tris-HCl, pH 7.4 • 27 mM KCl • 137 mM NaCl • 1 mM MgCl2 • 1 mM DTT Buffer-II: • 50 mM Tris-HCl, pH 7.0 • 1 mM MgCl2 • 1 mM DTT
(§5) The small GTPases proteins: KRas wild type. KRas Q61H mutant, KRas G12C mutant, KRas G12D mutants, Rac-1, and Rho-A were expressed as His-tagged proteins. In addition, the Guanosine nucleotide Exchange Factor (GEF) Sos protein (residues 556-1049) was expressed as a His-tagged protein. In cells, the guanine nucleotide exchange factor Sos protein promotes activation of Ras proteins by stimulating an exchange of GDP for GTP. The inclusion of Sos to the Ras GTP binding domain inhibition assay may be considered as an alternative representation of physiological cellular conditions for evaluating the inhibitory activity of some of the tested small molecules.
(§6) For the assay, all purified small GTPases proteins were diluted in Buffer-I or Buffer-II to a final concentration of 10-30 μg/mL. 200 μL of each diluted protein was added to a nickel-coated 96-well plate and incubated overnight at 4° C. Then the protein solution was discarded and 200 μL of Buffer-I or Buffer-II was added to each well in the presence of 1% DMSO. Compounds to be tested were added to the protein-coated wells at final concentration of 20 μM, and incubated for 3 hours at room temperature with and without 10-30 μg/mL of Sos added to the final hour of the incubation. When performing IC50 measurements a serial dilution of all tested concentrations was added. Then Cy3-GTP or Cy5-GTP was added to each well to a final concentration of 100 nM. The labeled GTP was incubated for 45 minutes at room temperature. Following GTP incubation, wells were washed 3× in Buffer-I or Buffer-II and 200 μL of Buffer-I or Buffer-II was added to each well. Following washes, the amount of bound labeled-GTP was measured using a SpectraMax M3 (Molecular Devices).

Rac-1 = molecular target: T1, Rac-1 (Homo sapiens, UniProt P63000); assay: as above; details: read-out: Rac-1: % inh.
T1 construct: made in house
Text: as §1, §2, §3, §4, §5, §6

KRas G12D mutant = assay: as above; details: 20 μM compound; for KRas G12D mutant + SOS: % inh.: with SOS; for KRas G12D mutant: % inh.: without SOS
Text: as §1, §2, §3, §4, §5, §6

[1] = test system: Smad2/Smad3 phosphorylation; assay: Phospho-Smad2/3 Inhibition Assay (western blot), Panc-1; assay type: cell-based, human; details: at 10 μM, Panc-1 pancreatic cancer cell line; starred symbols = activation
Method: Protocol for Phospho-Smad2/3 Inhibition Assay
This assay is referred to as the “Phospho-Smad2/3 Inhibition Assay” throughout this application.
Cell lines: Human tumor-derived pancreatic cancer cell line Panc-1 (expressing KRas G12D mutant) and mouse muscle myoblast C2C12 were purchased from American Type Culture Collection and grown in complete DMEM-High Glucose, supplemented with penicillin (100 U/mL), streptomycin (100 μg/mL), and 10% heat-inactivated FBS at 37° C. in a humidified incubator with 5% CO2.
Method: Cells were plated at 350000 cells/well density in a 12-well plate, allowed 3 hours to adhere to the plate, then starved in the appropriate medium in the presence of 0.5% FBS overnight. The small molecules to be tested were added to the cells in the final concentration of 10 μM in the presence of 0.3% DMSO for 3 hours incubation at 37° C. For IC50 value determination, serial dilutions of compounds were added to cells under the same conditions. Next, Panc-1 cells were stimulated with 10 ng/ml TGF-b1 for 1 hour, and C2C12 cells were stimulated with 10 ng/ml TGF-b1 for 20 minutes (recombinant human TGF-b1, R&D Systems). After stimulation cells were lysed with lysis buffer containing 1% Triton X-100, EDTA, and Halt™ Protease & Phosphatase Inhibitor Cocktail (Thermo Scientific). Protein concentration was assessed by BCA protein assay (Thermo Scientific). Phosphorylation level of Smad2/Smad3 was determined by western blot.
Western blot protocol: Equal amounts of protein (15-50 μg) were separated by SDS-PAGE and transferred to nitrocellulose membranes (Invitrogen by Thermo Fisher Scientific). The membrane was stained with Ponceau S Stain (Boston BioProducts) to verify uniform protein loading. Membranes were blocked with 10% milk and phosphorylation levels of Smad2/Smad3 were assessed by incubating overnight at 4° C. with the following antibodies: Phospho-Smad2 (Ser465/467) and Phosph-Smad3 (Ser423/425), both from Cell Signaling Technology. Then the membranes were incubated with HRP-conjugated secondary antibody (Jackson Immunoresearch, West Grove, PA). Bands were incubated in Amersham ECL Prime Western Blotting Detection Reagent (GE Healthcare) and visualized using the ChemiDoc MP imaging system (Bio-Rad).

KRas wild type + SOS: % inh. (KRas wild type) | KRas wild type: % inh. (KRas wild type) | inhibition at 20 µM (Rac-1) | KRas G12D mutant + SOS: % inh. (KRas G12D mutant) | KRas G12D mutant: % inh. (KRas G12D mutant) | SMILES | inhibition at 10 µM (TNF-alpha) | % inh of Smad2/3 phosphorylation in Panc-1 [1]
B (B = 26-49% inhibition) | C (C = 50-75% inhibition) | 50 to 75% | B (B = 26-49% inhibition) | B (B = 26-49% inhibition) | Cc1c(-c2ccn(C)n2)cn2nc(-c3nccn3C)nc(Cl)c12 [Compound 99, 4-Chloro-5-methyl-2-(1-methyl-1H-imidazol-2-yl)-6-(1-methyl-1H-pyrazol-3-yl)pyrrolo[2,1-f][1,2,4]triazine] | 75 to 100% | D (D = 76-100% inhibition)
0 (0 = 0% inhibition) | A (A = 1-25% inhibition) | 0% | A (A = 1-25% inhibition) | B (B = 26-49% inhibition) | COCCO[C@H]1C[C@H](Nc2nc(-c3nccn3C)nn3cc(-c4ccn(C)n4)c(C)c23)C1 [Compound 130, N-((1r,3r)-3-(2-Methoxyethoxy)cyclobutyl)-5-methyl-2-(1-methyl-1H-imidazol-2-yl)-6-(1-methyl-1H-pyrazol-3-yl)pyrrolo[2,1-f][1,2,4]triazin-4-amine] | 1 to 24% | C (C = 46-75% inhibition)
0 (0 = 0% inhibition) | A (A = 1-25% inhibition) | 0% | 0 (0 = 0% inhibition) | 0 (0 = 0% inhibition) | CO[C@H]1C[C@H](Nc2nc(-c3nccn3C)nn3cc(-c4ccncc4)c(C)c23)C1 [Compound 159, N-((1r,3r)-3-Methoxycyclobutyl)-5-methyl-2-(1-methyl-1H-imidazol-2-yl)-6-(pyridin-4-yl)pyrrolo[2,1-f][1,2,4]triazin-4-amine] | 0% | C (C = 46-75% inhibition)
0 (0 = 0% inhibition) | 0 (0 = 0% inhibition) | 1 to 25% | A (A = 1-25% inhibition) | 0 (0 = 0% inhibition) | COc1cc(-c2cn3nc(-c4nccn4C)nc(N[C@H]4C[C@H](OC)C4)c3c2C)ccn1 [Compound 160, N-((1r,3r)-3-Methoxycyclobutyl)-6-(2-methoxypyridin-4-yl)-5-methyl-2-(1-methyl-1H-imidazol-2-yl)pyrrolo[2,1-f][1,2,4]triazin-4-amine] | 25 to 49% | A* (A* = 1-25% activation)
D (D = 76-100% inhibition) | D (D = 76-100% inhibition) | 76 to 100% | D (D = 76-100% inhibition) | D (D = 76-100% inhibition) | Cc1c(-c2ccn(C)n2)cn2nc(-c3nccn3C)nc(Nc3cc(OC(F)(F)F)ccn3)c12 [Compound 127, 5-Methyl-2-(1-methyl-1H-imidazol-2-yl)-6-(1-methyl-1H-pyrazol-3-yl)-N-(4-(trifluoromethoxy)pyridin-2-yl)pyrrolo[2,1-f][1,2,4]triazin-4-amine] | 0% | A (A = 1-25% inhibition)
A (A = 1-25% inhibition) | A (A = 1-25% inhibition) | 1 to 25% | A (A = 1-25% inhibition) | B (B = 26-49% inhibition) | CO[C@H]1C[C@H](Nc2nc(-c3nccn3C)nn3cc(-c4cccnc4)c(-c4ccccn4)c23)C1 [Compound 168, N-((1r,3r)-3-Methoxycyclobutyl)-2-(1-methyl-1H-imidazol-2-yl)-5-(pyridin-2-yl)-6-(pyridin-3-yl)pyrrolo[2,1-f][1,2,4]triazin-4-amine] | 25 to 49% | A* (A* = 1-25% activation)
0 (0 = 0% inhibition) | 0 (0 = 0% inhibition) | 0% | 0 (0 = 0% inhibition) | 0 (0 = 0% inhibition) | CO[C@H]1CC[C@@H](Nc2nc(-c3ccccn3)nn3cc(-c4ccn(C(C)C)n4)c(C)c23)C1 (racemic) [Compound 9, rac 6-(1-Isopropyl-1H-pyrazol-3-yl)-N-((1R,3S)-3-methoxycyclopentyl)-5-methyl-2-(pyridin-2-yl)pyrrolo[2,1-f][1,2,4]triazin-4-amine] | 0% | 0 (0 = 0% inhibition)
A (A = 1-25% inhibition) | B (B = 26-49% inhibition) | 1 to 25% | B (B = 26-49% inhibition) | B (B = 26-49% inhibition) | CO[C@H]1C[C@H](Nc2nc(-c3nccn3C)nn3cc(-c4ccn(C)n4)c(C)c23)C1 [Compound 103, N-((1r,3r)-3-Methoxycyclobutyl)-5-methyl-2-(1-methyl-1H-imidazol-2-yl)-6-(1-methyl-1H-pyrazol-3-yl)pyrrolo[2,1-f][1,2,4]triazin-4-amine hydrochloride salt] | 0% | C* (C* = 46-75% activation)
D (D = 76-100% inhibition) | D (D = 76-100% inhibition) | 76 to 100% | D (D = 76-100% inhibition) | D (D = 76-100% inhibition) | Cc1c(-c2ccn(C)n2)cn2nc(-c3nccn3C)nc(Nc3ccccn3)c12 [Compound 118, 5-Methyl-2-(1-methyl-1H-imidazol-2-yl)-6-(1-methyl-1H-pyrazol-3-yl)-N-(pyridin-2-yl)pyrrolo[2,1-f][1,2,4]triazin-4-amine] | 1 to 24% | A* (A* = 1-25% activation)
D (D = 76-100% inhibition) | D (D = 76-100% inhibition) | 76 to 100% | D (D = 76-100% inhibition) | D (D = 76-100% inhibition) | COCCOc1cc(Nc2nc(-c3nccn3C)nn3cc(-c4ccn(C(C)C)n4)c(C)c23)ncn1 [Compound 122, 6-(1-Isopropyl-1H-pyrazol-3-yl)-N-(6-(2-methoxyethoxy)pyrimidin-4-yl)-5-methyl-2-(1-methyl-1H-imidazol-2-yl)pyrrolo[2,1-f][1,2,4]triazin-4-amine] | 1 to 24% | C (C = 46-75% inhibition)
